This is an account of results in the NIST ThermoML archive (doi:10.1021/acs.jced.8b01044).

For data set [1] the following is noted: Crystal; DSC.
Data set [2] can be described thus: Molar enthalpy of transition or fusion. Particulars: Crystal; DSC.

Molecules are shown by their SMILES. ± gives the expanded uncertainty stated by the source.

For the compound `CCCCCCCCCCCC(=O)O` [dodecanoic acid], the Triple point temperature in data set [1] worked out at 317.71 ± 0.93 K. Moreover, the “Molar enthalpy of transition or fusion” value in data set [2] was found to be 8.54 ± 0.598 kcal/mol.

Consider `CCCCCCCCCCCCCCCC(=O)O` [hexadecanoic acid], for which the Triple point temperature in data set [1] is listed as 336.13 ± 0.93 K. In addition, in data set [2], the “Molar enthalpy of transition or fusion” value was 12.1 ± 0.765 kcal/mol.

In the case of `CCCCCCCCCCCCCCCCCC(=O)O` [octadecanoic acid], the Triple point temperature in data set [1] is on record as 344.08 ± 0.93 K. For the same compound, the “Molar enthalpy of transition or fusion” value in data set [2] came to 14.5 ± 0.86 kcal/mol.
